As usually defined, the inhibition is how much of the control response was suppressed. Read a low inhibition as little suppression. Usually IC50 stands for the concentration at which inhibition is half-maximal. High values mean a need for much substance, low ones inhibition by little substance.

Consider one compound from paper PMC4664966, “Discovery and characterization of novel inhibitors of the sodium-coupled citrate transporter (NaCT or SLC13A5)” (Scientific Reports, 2015).

For one test, the target named is ATP-citrate lyase (Homo sapiens, UniProt P53396). Briefly: ATP-citrate lyase interaction/inhibition. The test is classed as biochemical.
Sequence of ATP-citrate lyase (P53396 whole entry): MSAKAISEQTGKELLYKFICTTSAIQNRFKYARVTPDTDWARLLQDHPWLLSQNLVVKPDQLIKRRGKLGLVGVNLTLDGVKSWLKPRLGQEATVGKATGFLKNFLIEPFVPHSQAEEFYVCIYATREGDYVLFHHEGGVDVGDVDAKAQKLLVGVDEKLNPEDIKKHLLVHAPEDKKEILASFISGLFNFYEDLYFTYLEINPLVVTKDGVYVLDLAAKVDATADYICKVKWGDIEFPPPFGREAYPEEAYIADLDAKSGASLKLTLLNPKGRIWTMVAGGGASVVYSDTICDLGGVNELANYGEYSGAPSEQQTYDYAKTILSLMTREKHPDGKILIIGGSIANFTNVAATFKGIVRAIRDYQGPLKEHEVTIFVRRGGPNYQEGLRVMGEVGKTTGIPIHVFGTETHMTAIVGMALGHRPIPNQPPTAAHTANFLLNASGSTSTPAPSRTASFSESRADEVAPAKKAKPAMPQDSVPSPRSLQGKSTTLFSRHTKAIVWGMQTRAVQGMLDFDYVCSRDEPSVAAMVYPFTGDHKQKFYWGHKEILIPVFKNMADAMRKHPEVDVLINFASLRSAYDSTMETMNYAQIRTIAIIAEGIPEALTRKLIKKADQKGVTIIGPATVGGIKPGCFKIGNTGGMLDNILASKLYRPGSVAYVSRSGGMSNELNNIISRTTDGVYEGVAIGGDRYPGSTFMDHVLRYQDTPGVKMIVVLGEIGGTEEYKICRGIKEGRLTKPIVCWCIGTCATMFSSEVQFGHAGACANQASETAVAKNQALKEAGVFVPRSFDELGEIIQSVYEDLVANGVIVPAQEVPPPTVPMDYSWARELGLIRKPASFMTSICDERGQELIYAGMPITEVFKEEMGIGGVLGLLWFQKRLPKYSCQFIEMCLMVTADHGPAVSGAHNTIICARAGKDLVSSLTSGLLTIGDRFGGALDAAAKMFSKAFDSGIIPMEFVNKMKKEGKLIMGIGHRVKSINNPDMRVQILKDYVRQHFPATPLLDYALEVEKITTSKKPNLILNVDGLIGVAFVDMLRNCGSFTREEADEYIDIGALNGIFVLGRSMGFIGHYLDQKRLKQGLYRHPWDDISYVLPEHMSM
In another test the test system is human hepatocytes. Briefly: Incorporation of [14C]-citrate into triglycerides by human hepatocytes. The test is classed as cell-based. Conditions: radiolabeled citrate for 24 hours. On the procedure: Incorporation of [^14C]-citrate into triglycerides by human hepatocytes was measured using the same procedure as above except cells were incubated with the radioactive citrate for 24 hours. Subsequently, the media was aspirated and 100 μL of isopropyl alcohol:THF (9:1) was added. The plate was shaken for 15 minutes, centrifuged at 3000 revolutions per minute for 5 minutes, and 50 μL of supernatant from each well was applied per TLC lane (Whatman LK6D Silica Gel Plates). Radiolabeled lipids were resolved using a 2-solvent system: Solvent 1 contained a 100:100:100:40:36 mixture of ethyl acetate:isopropyl alcohol:CHCl3:MeOH:0.25% KCl and Solvent 2 a 70:27:3 hexane:diethyl ether:acetic acid mixture. The TLC plate was dried under nitrogen for 30 minutes and [^14C]-standards added to a vacant lane. Bands were visualized and quantitated using a Molecular Dynamics’ Storm 860 PhosphorImager system following 18–36 hours exposure to a Phosphorimager screen.

Test [1] deals with Dopamine transporter, sodium-dependent (DAT) (Homo sapiens, UniProt Q01959). Put plainly: Selectivity data (Table S1).
Sequence of Dopamine transporter, sodium-dependent (DAT) (Q01959 whole entry): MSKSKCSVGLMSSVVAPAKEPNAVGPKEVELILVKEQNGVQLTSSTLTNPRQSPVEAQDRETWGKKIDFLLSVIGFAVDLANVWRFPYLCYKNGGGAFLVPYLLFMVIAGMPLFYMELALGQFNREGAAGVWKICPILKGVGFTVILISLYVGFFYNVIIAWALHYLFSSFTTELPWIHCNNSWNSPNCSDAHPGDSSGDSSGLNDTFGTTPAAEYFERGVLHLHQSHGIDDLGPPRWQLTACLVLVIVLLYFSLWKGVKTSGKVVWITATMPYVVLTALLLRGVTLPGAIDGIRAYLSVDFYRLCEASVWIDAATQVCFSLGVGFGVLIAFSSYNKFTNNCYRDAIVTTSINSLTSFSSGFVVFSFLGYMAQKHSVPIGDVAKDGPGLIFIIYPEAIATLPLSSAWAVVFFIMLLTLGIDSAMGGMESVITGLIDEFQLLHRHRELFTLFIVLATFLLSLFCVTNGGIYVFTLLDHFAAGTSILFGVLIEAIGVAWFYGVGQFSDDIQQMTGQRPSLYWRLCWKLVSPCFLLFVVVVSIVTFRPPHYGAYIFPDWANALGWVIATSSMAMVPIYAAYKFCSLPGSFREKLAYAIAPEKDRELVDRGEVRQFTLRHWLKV
Test [2] has as its target Choline transporter (CHT1) (SLC5A7) (Homo sapiens, UniProt Q9GZV3). Briefly: Selectivity data (Table S1).
The next test concerns the target T1, NaDC3 (SLC13A3) (Homo sapiens, UniProt Q8WWT9).
T1 construct: host or cells: HEK-293, transient (Fugene HD)
T1 sequence (Q8WWT9 1-602): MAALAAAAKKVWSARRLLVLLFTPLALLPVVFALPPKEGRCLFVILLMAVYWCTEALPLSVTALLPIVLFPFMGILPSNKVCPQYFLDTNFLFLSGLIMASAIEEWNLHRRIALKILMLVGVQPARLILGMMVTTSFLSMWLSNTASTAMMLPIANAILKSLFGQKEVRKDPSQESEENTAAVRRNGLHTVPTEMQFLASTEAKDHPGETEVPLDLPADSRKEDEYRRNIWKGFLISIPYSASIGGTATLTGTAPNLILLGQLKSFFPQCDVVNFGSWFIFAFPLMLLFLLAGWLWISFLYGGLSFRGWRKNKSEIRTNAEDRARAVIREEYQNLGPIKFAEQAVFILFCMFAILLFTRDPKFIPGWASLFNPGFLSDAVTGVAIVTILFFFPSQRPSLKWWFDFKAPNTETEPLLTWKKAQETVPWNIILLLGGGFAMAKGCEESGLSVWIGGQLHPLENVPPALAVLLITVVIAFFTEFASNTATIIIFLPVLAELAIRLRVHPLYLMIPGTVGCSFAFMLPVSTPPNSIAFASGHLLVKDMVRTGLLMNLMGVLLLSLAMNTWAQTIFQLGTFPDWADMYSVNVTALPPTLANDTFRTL
Put plainly: Inhibition of citrate or succinate uptake in HEKNaDC3 cells. The test is classed as cell-based. An excerpt: Protocols to generate the stable cell line overexpressing NaCT or cell transfection with SLC13A2 or SLC13A3 can be found in the supporting information. HEK-293 cells stably transfected with the human sodium Citrate transporter SLC13A5 or transiently transfected with the human SLC13A2 or SLC13A3 transporter were removed from the flasks with dissociation buffer and re-suspended in an equal volume of growth media (DMEM, High Glucose supplemented with 10% heat inactivated fetal bovine serum and 500 μg/ml Geneticin). For the transient transfections, Geneticin was eliminated from the media. Cell suspensions were centrifuged at 1,000 rpm for approximately 5 minutes. Resulting cell pellets were re-suspended in growth media and placed in a 37 °C water bath for approximately 10 minutes prior to a final spin at 1,000 rpm. Following this spin the resulting cell pellets were re-suspended in assay buffer, 142 mM NaCl (or 142 mM choline chloride), 5 mM KCl, 1.2 mM MgSO4, 1.5 mM CaCl, 5 mM glucose and 25 mM HEPES pH 7.4. Cell suspensions were counted and the concentration adjusted as needed with assay buffer to 2e[6] viable cells /mL. 20 μL of cell suspension were added to 384-well cyotstar-T plates followed by the addition of 5 μL of 10× concentration of compound. Cells and compound were incubated at 37 °C for approximately 30 minutes prior to the addition of 25 μL of 300 μM citric acid (16 μM radiolabeled [^14C]-citric acid and 284 μM cold citric acid) to make a 150 μM final concentration of citric acid or 21 μM [^14C]-succinic acid. After substrate addition, the uptake of radioactivity was monitored on Perkin Elmer Microbeta plate reader. Data from reads between 45–90 minutes was used to assess the ability of test compounds to inhibit the uptake of citric or succinic acid. […]
were plated, and incubated for 48 hours. Following the incubation, NaDC1 and NaDC3 assays were executed identical to the procedure for NaCT. […]
The solution was heated to reflux until the total volume was reduced to ~25 mL. […]

For test [3], the target named is Sodium channel, neuronal alpha-subunit (NaV1.1) (Homo sapiens, UniProt P35498). Briefly: Selectivity data (Table S1).
The target in test [4] is Acetylcholinesterase (ACHE) (Homo sapiens, UniProt P22303). Put plainly: Selectivity data (Table S1). The test is classed as biochemical.
Sequence of Acetylcholinesterase (ACHE) (P22303 32-614): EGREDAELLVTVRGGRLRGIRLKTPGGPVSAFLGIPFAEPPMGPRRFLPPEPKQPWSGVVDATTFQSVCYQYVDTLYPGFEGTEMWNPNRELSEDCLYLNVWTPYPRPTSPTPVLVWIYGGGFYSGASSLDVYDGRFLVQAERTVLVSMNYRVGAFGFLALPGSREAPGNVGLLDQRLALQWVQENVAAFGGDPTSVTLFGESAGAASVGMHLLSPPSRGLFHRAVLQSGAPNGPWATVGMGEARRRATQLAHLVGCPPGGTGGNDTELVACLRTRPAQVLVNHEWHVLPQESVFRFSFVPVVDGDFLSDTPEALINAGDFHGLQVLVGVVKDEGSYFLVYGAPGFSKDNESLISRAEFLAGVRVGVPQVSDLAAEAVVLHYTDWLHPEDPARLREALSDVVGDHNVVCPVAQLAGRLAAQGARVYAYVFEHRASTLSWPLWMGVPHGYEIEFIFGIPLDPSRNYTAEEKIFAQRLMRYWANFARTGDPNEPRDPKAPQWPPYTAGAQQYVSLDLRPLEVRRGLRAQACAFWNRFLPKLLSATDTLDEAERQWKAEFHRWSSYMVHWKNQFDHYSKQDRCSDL

SMILES strings stand for the structures.

Sequence of Choline transporter (CHT1) (SLC5A7) (Q9GZV3 whole entry): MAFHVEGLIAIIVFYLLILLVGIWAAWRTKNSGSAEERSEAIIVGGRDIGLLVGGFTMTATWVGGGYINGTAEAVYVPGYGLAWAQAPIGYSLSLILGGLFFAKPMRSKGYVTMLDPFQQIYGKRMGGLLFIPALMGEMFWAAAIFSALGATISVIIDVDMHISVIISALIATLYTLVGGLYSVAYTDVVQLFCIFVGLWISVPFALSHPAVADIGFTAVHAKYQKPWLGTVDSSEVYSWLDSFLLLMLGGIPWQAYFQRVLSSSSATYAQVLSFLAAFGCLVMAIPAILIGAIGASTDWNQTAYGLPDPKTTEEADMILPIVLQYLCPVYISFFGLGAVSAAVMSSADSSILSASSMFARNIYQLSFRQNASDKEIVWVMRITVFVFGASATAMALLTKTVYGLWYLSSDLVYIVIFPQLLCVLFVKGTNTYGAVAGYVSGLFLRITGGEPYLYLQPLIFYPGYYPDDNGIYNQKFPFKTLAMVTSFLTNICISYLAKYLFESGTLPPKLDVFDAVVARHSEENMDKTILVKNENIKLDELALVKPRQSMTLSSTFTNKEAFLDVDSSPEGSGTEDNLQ

Turning to `CC(C)(C)c1ccc(CC[C@@](O)(CC(=O)O)C(=O)O)cc1` [Compound 2], at ATP-citrate lyase, the “interaction/inhibition of ATP-citrate lyase” value is recorded as “no significant interaction/inhibition”. For the same compound, the “label incorporation in TAG” value in the test with human hepatocytes is “decreased dose-dependently”. The inhibition at 100 µM in test [1], in test [2] and in test [4] was less than 10% each time. The “inhibition of citrate or succinate uptake, NaDC3” value on NaDC3 (SLC13A3) (HEK-293-derived system overexpressing NaDC3) is listed as “No measurable inhibition”. The IC50 against NaDC3 (SLC13A3) (compound 4: mean of 2 replicates) is more than 100 µM. The same compound came in with an inhibition at 10 µM in test [3] of less than 10%.
